Laboratory results: patent USRE42013E1, “Macrocyclic modulators of the ghrelin receptor” (Tranzyme Pharma Inc., priority 2003, dated 2010)
Where two headings read alike, the source gives them in different places.

Columns and labels:
[1] = molecular target: human ghrelin receptor (hGHS-R1a) (Homo sapiens, UniProt Q92847); test: cell-based
From the text: B. Aequorin Functional Assay (Ghrelin Receptor)
This cell line is typically constructed by transfection of the human ghrelin receptor into CHO-K1 cells co-expressing Gα16 and the mitochondrially targeted Aequorin (Ref #ES-WT-A5). • 1. […] Assay buffer: DMEM (Dulbecco's Modified Eagles Medium) containing 0.1% BSA (bovine serum albumin; pH 7.0). • 3. Coelenterazine (Molecular Probes, Leiden, The Netherlands). Final test concentrations (N=8) for compounds of the invention: 10, 1, 0.3, 0.1, 0.03, 0.01, 0.003, 0.001 μM. Compound Handling
Assay plates were then prepared by appropriate dilution in DMEM medium containing 0.1% BSA. Under these conditions, the maximal final DMSO concentration in the assay was <0.6%.
AequoScreen™ cells were collected from culture plates with Ca^2+ and Mg^2+-free phosphate buffered saline (PBS) supplemented with 5 mM EDTA, pelleted for 2 min at 1000×g, re-suspended in DMEM—Ham's F12 containing 0.1% BSA at a density of 5×10^6 cells/mL, and incubated O/N at rt in the presence of 5 μM coelenterazinc. After loading, cells were diluted with assay buffer to a concentration of 5×10^5 cells/mL.
For agonist testing, 50 μL of the cell suspension was mixed with 50 μL of the appropriate concentration of test compound or ghrelin (reference agonist) in 96-well plates (duplicate samples). Ghrelin (reference agonist) was tested at several concentrations concurrently with the test compounds in order to validate the experiment. The emission of light resulting from receptor activation in response to ghrelin or test compounds was recorded using the Hamamatsu FDSS 6000 reader (Hamamatsu Photonics K.K., Japan).
Analysis and Expression of Results
Results were expressed as Relative Light Units (RLU). […] EC50, Hill slope and % Emax values are reported.
Key Aspects of Method • 1. Assay performed on CHO-K1 cells expressing the transfected, cloned human ghrelin receptor (hGHS-R1a) and Gα16. • 2. Suspended cells incubated O/N with coelenterazine. • 3. Stimulation of hGHS-R1a activates Gα16, causing intercellular Ca2+ release which ultimately leads to the oxidation of coelenterazine and the emission of a quantitative luminescent signal. • 4. Ghrelin was used as the positive control. • 5.

[2] = molecular target: T1, human growth hormone secretagogue receptor (hGHS-R1a) (Homo sapiens, UniProt Q92847); test: Competitive radioligand binding assay (ghrelin receptor), [125I]-ghrelin displacement
T1 construct: purchased PerkinElmer BioSignal #RBHGHSM, lot#1887; host or cells: HEK-293, stably transfected
Procedure: The competitive binding assay at the human growth hormone secretagogue receptor (hGHS-R1a) was carried out analogously to assays described in the literature.
Multiscreen Harvest plates-GF/C (Millipore, #MAHFC1H60) • 4. […] Bottom seal (Millipore, #MATAH0P00) • 7. […] Binding Buffer: 25 mM Hepes (pH 7.4), 1 mM CaCl2, 5 mM MgCl2, 2.5 mM EDTA, 0.4% BSA Assay Volumes
Competition experiments were performed in a 300 μl filtration assay format. • 1. 220 μL of membranes diluted in binding buffer • 2. 40 μL of compound diluted in binding buffer • 3. […] Compound Handling
Compounds were provided frozen on dry ice at a stock concentration of 10 mM diluted in 100% DMSO and stored at −80° C. until the day of testing. On the test day, compounds were allowed to thaw at rt O/N and then diluted in assay buffer according to the desired test concentrations.
Plates were sealed with TopSeal-A, vortexed gently and incubated at rt for 30 min. The reaction was arrested by filtering samples through Multiscreen Harvest plates (pre-soaked in 0.5% polyethyleneimine) using a Tomtec Harvester, washed 9 times with 500 μL of cold 50 mM Tris-HCl (pH 7.4, 4° C.), and then plates were air-dried in a fumehood for 30 min. A bottom seal was applied to the plates prior to the addition of 25 μL of MicroScint-0 to each well. […] Results were expressed as counts per minute (cpm).
Data were analyzed by GraphPad Prism (GraphPad Software, San Diego, Calif.) using a variable slope non-linear regression analysis.
Compound structures for Tables 3A, 3B and 3D are presented with the various groups as defined for the general structure of formula I. For Tables 3B and 3D, in all entries, m, n and p are 0; X, Z1 and Z2 are each NH. For Table 3B, R1 is H for all entries. The tethers (T) are illustrated with the bonding to X and Z2 as indicated. The compounds themselves are shown for Table 3C.
• 1. […] Key Aspects of Method • 1. […] Results

[3] = Table 4, binding at human ghrelin receptor, TFA salts unless otherwise noted, read-out: Ki
[4] = [125I]-ghrelin displacement, hGHS-R1a HEK-293 membranes, read-out: Binding Activity at the Human Ghrelin Receptor (Ki)
[5] = binding activity at the human ghrelin receptor, [125I]-ghrelin displacement, hGHS-R1a/HEK-293 membranes, read-out: Ki
[6] = Table 3B, binding at human ghrelin receptor, [125I]-ghrelin displacement, read-out: Ki

human ghrelin receptor (hGHS-R1a), sequence (Q92847 whole entry): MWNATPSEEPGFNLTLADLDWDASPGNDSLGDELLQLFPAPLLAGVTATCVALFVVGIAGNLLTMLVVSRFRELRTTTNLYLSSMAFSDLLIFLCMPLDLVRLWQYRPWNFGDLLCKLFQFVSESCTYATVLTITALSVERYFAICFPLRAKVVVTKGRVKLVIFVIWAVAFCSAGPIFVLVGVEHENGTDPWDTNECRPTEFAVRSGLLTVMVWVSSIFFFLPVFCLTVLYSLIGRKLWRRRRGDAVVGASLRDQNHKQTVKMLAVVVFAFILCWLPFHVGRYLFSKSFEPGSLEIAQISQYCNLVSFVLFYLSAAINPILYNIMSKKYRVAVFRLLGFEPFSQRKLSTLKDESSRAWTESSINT
T1 sequence (Q92847 whole entry): as above

SMILES	EC50 [1]	Ki [2, 3]	Ki [2, 4]	Ki [2, 5]	Ki [2, 6]
CCC(C)C1NCCCc2ccccc2CCCCNC(=O)C(Cc2ccccc2)NC(=O)C(C)N(C)C1=O (stereo not drawn) [compound 192]	100 to 1000 nM	10 to 100 nM	10 to 100 nM	–	–
CCC(C)C1NCCOc2ccccc2CCCNC(=O)C(CC(C)C)NC(=O)C(C)N(C)C1=O (stereo not drawn) [compound 176]	1 to 100 nM	10 to 100 nM	–	10 to 100 nM	–
CCC(C)C1NCCOCC=CCCNC(=O)C(Cc2ccccc2)NC(=O)C(C)N(C)C1=O (stereo not drawn) [compound 186]	100 to 1000 nM	100 to 1000 nM	–	100 to 10000 nM	–
CCCC1NCCOc2ccccc2C=CCNC(=O)C(Cc2ccccc2)NC(=O)C(C)N(C)C1=O (stereo not drawn) [compound 39]	100 to 1000 nM	0.1 to 10 nM	–	10 to 100 nM	–
CCC(C)C1NCCOc2ccccc2C2CC2CNC(=O)C(Cc2cccc(Cl)c2)NC(=O)C2(CCCC2)NC1=O (stereo not drawn) [compound 388]	1 to 100 nM	0.1 to 10 nM	–	–	0.1 to 10 nM
CC1COc2ccccc2CCCNC(=O)C(Cc2ccc(F)cc2)NC(=O)C(C)N(C)C(=O)C(C2CC2)N1 (stereo not drawn) [compound 394]	100 to 1000 nM	0.1 to 10 nM	–	–	0.1 to 10 nM
CCC(C)C1NCc2ccccc2CC=CCNC(=O)C(Cc2ccccc2)NC(=O)C(C)N(C)C1=O (stereo not drawn) [compound 193]	100 to 1000 nM	100 to 1000 nM	100 to 10000 nM	–	–
CCC(C)C1NCCOc2ccc(C(=O)O)cc2CCCNC(=O)C(Cc2ccccc2)NC(=O)C(C)N(C)C1=O (stereo not drawn) [compound 197]	> 1000 nM	100 to 1000 nM	100 to 10000 nM	–	–
CCCC1NCCOc2ccccc2C=CCNC(=O)C(Cc2ccccc2)NC(=O)CN(C)C1=O (stereo not drawn) [compound 11]	100 to 1000 nM	10 to 100 nM	–	10 to 100 nM	–

Further lines, results first:

EC50 [1]	Ki [2, 3]	Ki [2, 4]	Ki [2, 5]	Ki [2, 6]	SMILES
1 to 100 nM	10 to 100 nM	–	10 to 100 nM	–	COc1ccc(CC2NC(=O)C3(CCCC3)NC(=O)C(CC(C)C)NCCOc3ccccc3C=CCNC2=O)cc1 (stereo not drawn) [compound 156]
1 to 100 nM	100 to 1000 nM	–	100 to 10000 nM	–	CC(C)CC1NCCOc2ccccc2C=CCNC(=O)C(CC(C)C)NC(=O)C2(CCCC2)NC1=O (stereo not drawn) [compound 47]
100 to 1000 nM	10 to 100 nM	–	10 to 100 nM	–	CCC(C)C1NCCOc2ccccc2CCCNC(=O)C(Cc2cccnc2)NC(=O)C(C)N(C)C1=O (stereo not drawn) [compound 170]
100 to 1000 nM	100 to 1000 nM	–	100 to 10000 nM	–	CC(C)C1NCCOc2ccccc2C=CCNC(=O)C(Cc2ccccc2)NC(=O)C2(CCOCC2)NC1=O (stereo not drawn) [compound 140]
100 to 1000 nM	10 to 100 nM	–	–	< 100 nM	CCC(C)C1NCCOc2ccc(F)cc2CCCNC(=O)C(Cc2cccc(Cl)c2)NC(=O)C2(CCCC2)NC1=O (stereo not drawn) [compound 382]
1 to 100 nM	10 to 100 nM	10 to 100 nM	–	–	CCC(C)C1NCc2ccccc2CC=CCCNC(=O)C(Cc2ccccc2)NC(=O)C(C)N(C)C1=O (stereo not drawn) [compound 195]
1 to 100 nM	10 to 100 nM	–	10 to 100 nM	–	CCC(C)C1NCCOc2cccnc2CCCNC(=O)C(Cc2ccccc2)NC(=O)C(C)N(C)C1=O (stereo not drawn) [compound 177]
1 to 100 nM	10 to 100 nM	–	–	< 100 nM	CC1C(=O)NC(Cc2ccc(F)cc2)C(=O)NCC#Cc2ccccc2OCCNC(C2CC2)C(=O)N1C (stereo not drawn) [compound 354]
100 to 1000 nM	10 to 100 nM	–	10 to 100 nM	–	CCCCC1NCCOc2ccccc2CCCNC(=O)C(Cc2ccccc2)NC(=O)CN(C)C1=O (stereo not drawn) [Compound 1]
100 to 1000 nM	100 to 1000 nM	100 to 10000 nM	–	–	CCC(C)C1NCCCc2ccccc2C=CCCNC(=O)C(Cc2ccccc2)NC(=O)C(C)N(C)C1=O (stereo not drawn) [compound 191]
1 to 100 nM	0.1 to 10 nM	–	0.1 to 10 nM	–	CCC(C)C1NCCOc2ccccc2C=CCNC(=O)C(Cc2ccccc2)NC(=O)C(C)N(C)C1=O (stereo not drawn) [compound 40]
1 to 100 nM	10 to 100 nM	–	–	< 100 nM	CC1C(=O)NC(Cc2ccc(F)cc2)C(=O)NCCCc2cc(NS(C)(=O)=O)ccc2OCCNC(C2CC2)C(=O)N1C (stereo not drawn) [compound 374]
1 to 100 nM	0.1 to 10 nM	–	–	0.1 to 10 nM	CC1C(=O)NC(Cc2c(F)c(F)c(F)c(F)c2F)C(=O)NCCCc2ccccc2OCCNC(C2CC2)C(=O)N1C (stereo not drawn) [compound 318]
